Reference: BindingDB's records for doi:10.1016/j.bmc.2013.10.018 (Baylor College of Medicine, 2014)

Assays:
[1] = target: T1, Signal transducer and activator of transcription 3 (Homo sapiens, UniProt P40763); test: Inhibition of Stat3 phosphorylation in human PANC1 cells by Western blotting analysis in hypoxia condition
[2] = target: T2, Hypoxia-inducible factor 1-alpha (Homo sapiens, UniProt Q16665); test: Inhibition of HIF-1 alpha in human MDA-MB-468 cells by Western blotting analysis in hypoxia condition
[3] = target: T2, Hypoxia-inducible factor 1-alpha; test: Inhibition of HIF-1 alpha in human OVCAR3 cells by Western blotting analysis in hypoxia condition
[4] = target: T1, Signal transducer and activator of transcription 3; test: Inhibition of Stat3 phosphorylation in human OVCAR3 cells by Western blotting analysis in normoxia condition
[5] = target: T1, Signal transducer and activator of transcription 3; test: Inhibition of Stat3 phosphorylation in human MDA-MB-468 cells by Western blotting analysis in hypoxia condition
[6] = target: T2, Hypoxia-inducible factor 1-alpha; test: Inhibition of HIF-1 alpha in human MDA-MB-231 cells by Western blotting analysis in hypoxia condition
[7] = target: T1, Signal transducer and activator of transcription 3; test: Inhibition of Stat3 phosphorylation in human PANC1 cells by Western blotting analysis in normoxia condition
[8] = target: T1, Signal transducer and activator of transcription 3; test: Inhibition of Stat3 phosphorylation in human MDA-MB-231 cells by Western blotting analysis in normoxia condition
[9] = target: T1, Signal transducer and activator of transcription 3; test: Inhibition of Stat3 phosphorylation in human OVCAR3 cells by Western blotting analysis in hypoxia condition
[10] = target: T1, Signal transducer and activator of transcription 3; test: Inhibition of Stat3 phosphorylation in human MDA-MB-231 cells by Western blotting analysis in hypoxia condition
[11] = target: T2, Hypoxia-inducible factor 1-alpha; test: Inhibition of HIF-1 alpha in human PANC1 cells by Western blotting analysis in hypoxia condition
[12] = target: T1, Signal transducer and activator of transcription 3; test: Inhibition of Stat3 phosphorylation in human MDA-MB-468 cells by Western blotting analysis in normoxia condition

T2 sequence (Q16665 whole entry): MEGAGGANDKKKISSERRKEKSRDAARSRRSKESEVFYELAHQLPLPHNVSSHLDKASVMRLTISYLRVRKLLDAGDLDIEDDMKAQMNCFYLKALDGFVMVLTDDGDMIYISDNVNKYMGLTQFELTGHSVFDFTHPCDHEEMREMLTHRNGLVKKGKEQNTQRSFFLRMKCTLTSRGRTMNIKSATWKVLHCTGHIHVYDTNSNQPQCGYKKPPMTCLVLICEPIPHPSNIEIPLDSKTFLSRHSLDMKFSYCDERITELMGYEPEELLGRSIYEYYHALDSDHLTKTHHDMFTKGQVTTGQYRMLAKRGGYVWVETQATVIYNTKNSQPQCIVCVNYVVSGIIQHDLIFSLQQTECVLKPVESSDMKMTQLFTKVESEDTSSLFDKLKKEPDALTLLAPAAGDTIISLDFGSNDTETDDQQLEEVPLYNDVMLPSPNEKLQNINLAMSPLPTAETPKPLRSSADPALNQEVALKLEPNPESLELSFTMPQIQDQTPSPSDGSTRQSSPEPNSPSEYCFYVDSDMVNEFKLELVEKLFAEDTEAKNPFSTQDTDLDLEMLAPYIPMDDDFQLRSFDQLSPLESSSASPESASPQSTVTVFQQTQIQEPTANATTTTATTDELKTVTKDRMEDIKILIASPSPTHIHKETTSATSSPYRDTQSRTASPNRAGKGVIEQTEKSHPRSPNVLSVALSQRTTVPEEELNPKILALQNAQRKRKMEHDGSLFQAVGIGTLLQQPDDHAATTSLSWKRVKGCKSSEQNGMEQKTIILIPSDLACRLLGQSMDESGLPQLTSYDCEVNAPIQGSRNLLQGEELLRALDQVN
T1 sequence (P40763 whole entry): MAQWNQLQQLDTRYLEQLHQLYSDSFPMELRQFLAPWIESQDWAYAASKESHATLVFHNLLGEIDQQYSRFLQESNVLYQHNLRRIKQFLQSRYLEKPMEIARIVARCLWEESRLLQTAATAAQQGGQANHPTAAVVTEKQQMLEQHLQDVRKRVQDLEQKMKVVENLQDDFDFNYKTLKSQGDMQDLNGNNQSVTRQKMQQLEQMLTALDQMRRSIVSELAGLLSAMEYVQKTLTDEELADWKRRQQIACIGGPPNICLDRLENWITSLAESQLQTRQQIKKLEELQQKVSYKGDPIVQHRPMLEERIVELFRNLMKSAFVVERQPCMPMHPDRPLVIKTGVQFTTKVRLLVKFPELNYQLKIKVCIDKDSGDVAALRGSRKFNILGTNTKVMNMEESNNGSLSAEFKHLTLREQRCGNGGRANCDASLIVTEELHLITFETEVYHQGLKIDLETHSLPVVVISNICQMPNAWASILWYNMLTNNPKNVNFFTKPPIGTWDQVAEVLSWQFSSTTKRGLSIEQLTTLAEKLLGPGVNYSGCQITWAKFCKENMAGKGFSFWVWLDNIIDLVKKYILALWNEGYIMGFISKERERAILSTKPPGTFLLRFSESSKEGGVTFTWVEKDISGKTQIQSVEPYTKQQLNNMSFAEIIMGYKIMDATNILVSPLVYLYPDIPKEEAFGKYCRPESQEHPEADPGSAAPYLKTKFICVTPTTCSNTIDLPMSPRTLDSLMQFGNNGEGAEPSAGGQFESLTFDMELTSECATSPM

## CN(C)CCCN1C(=O)c2ccc3c4ccc5c6c(ccc(c7ccc(c2c37)C1=O)c64)C(=O)N(CCCN(C)C)C5=O
[1]
  IC50: 4.5 µM
[2]
  IC50: 3000 nM
[3]
  IC50: 3000 nM
[4]
  IC50: 4.5 µM
[5]
  IC50: 4.5 µM
[6]
  IC50: 3000 nM
[7]
  IC50: 4.5 µM
[8]
  IC50: 4.5 µM
[9]
  IC50: 4.5 µM
[10]
  IC50: 4.5 µM
[11]
  IC50: 3000 nM
[12]
  IC50: 4.5 µM
